ChEMBL document CHEMBL1201862, “PubChem BioAssay data set” (2004)
Calls of active or inactive are those of the source.

Tests used:
[1] = target: Peroxisome proliferator-activated receptor gamma/Nuclear receptor coactivator 2 (Homo sapiens, UniProt P37231); assay type: functional;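 note: agonist potency for raising coactivator recruitment to the receptor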
[2] = target: Peroxisome proliferator-activated receptor gamma/Nuclear receptor coactivator 3 (Homo sapiens, UniProt P37231); assay type: functional;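 note: agonist potency for raising coactivator recruitment to the receptor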
Chain of Peroxisome proliferator-activated receptor gamma/Nuclear receptor coactivator 3 (P37231 whole entry): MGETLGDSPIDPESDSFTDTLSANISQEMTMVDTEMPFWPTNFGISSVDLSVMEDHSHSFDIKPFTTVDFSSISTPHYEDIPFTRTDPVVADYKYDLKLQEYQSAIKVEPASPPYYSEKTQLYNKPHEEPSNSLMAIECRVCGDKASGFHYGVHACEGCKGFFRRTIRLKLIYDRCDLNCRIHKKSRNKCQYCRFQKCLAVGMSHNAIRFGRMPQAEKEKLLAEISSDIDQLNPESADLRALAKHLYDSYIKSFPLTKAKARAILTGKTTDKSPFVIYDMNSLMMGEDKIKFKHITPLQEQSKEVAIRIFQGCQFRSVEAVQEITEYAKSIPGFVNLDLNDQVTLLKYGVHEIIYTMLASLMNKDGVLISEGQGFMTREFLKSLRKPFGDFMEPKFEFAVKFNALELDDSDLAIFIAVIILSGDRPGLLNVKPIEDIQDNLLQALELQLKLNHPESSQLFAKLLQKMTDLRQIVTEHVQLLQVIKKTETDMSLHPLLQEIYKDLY
Chain of Peroxisome proliferator-activated receptor gamma/Nuclear receptor coactivator 3 (Q9Y6Q9 whole entry, further chain): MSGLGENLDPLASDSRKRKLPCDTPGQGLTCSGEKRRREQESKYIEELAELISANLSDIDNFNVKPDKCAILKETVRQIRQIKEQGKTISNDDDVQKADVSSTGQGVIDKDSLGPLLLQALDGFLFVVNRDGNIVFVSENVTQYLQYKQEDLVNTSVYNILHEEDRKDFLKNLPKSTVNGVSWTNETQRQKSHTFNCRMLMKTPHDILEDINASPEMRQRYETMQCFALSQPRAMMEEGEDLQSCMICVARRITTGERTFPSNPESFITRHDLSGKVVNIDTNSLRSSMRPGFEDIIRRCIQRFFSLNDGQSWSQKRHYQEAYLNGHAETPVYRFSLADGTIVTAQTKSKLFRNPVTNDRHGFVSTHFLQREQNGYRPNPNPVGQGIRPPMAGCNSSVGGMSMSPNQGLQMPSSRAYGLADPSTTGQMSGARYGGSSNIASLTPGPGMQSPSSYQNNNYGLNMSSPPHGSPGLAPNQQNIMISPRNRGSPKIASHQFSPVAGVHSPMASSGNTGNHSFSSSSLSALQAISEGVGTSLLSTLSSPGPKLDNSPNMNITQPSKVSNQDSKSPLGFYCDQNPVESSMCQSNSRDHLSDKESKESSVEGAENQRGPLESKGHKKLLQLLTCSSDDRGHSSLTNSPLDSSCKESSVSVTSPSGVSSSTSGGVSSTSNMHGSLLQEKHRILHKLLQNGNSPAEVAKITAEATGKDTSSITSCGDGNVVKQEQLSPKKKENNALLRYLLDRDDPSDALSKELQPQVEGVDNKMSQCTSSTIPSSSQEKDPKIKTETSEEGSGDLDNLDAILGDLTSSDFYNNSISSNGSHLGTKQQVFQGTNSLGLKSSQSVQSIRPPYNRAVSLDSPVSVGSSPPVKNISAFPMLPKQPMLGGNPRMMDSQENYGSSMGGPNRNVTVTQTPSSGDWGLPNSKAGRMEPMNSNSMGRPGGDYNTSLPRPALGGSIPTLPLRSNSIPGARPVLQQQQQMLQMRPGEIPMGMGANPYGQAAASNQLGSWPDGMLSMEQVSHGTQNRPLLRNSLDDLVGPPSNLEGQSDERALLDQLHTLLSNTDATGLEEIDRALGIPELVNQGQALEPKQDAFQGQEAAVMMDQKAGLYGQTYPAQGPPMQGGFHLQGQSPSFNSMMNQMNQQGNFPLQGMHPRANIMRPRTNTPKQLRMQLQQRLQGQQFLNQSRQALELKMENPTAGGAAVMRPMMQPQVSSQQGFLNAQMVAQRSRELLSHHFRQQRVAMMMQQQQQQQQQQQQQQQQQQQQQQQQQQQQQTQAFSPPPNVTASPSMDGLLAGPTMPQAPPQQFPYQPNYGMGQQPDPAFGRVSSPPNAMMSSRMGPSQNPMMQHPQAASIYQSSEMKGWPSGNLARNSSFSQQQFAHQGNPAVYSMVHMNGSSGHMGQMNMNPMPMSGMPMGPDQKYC

[3] = target: Peroxisome proliferator-activated receptor gamma/Nuclear receptor coactivator 1 (Homo sapiens, UniProt P37231); assay type: functional;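 note: agonist potency as compounds enhance coactivator SRC-1 recruitment to PPARgamma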
Estrogen receptor = target: T1, Estrogen receptor (Homo sapiens, UniProt P03372); test: ERα coactivator recruitment enhancers – biochemical, TR-FRET, ERα LBD, dose response (AID 737)
T1 sequence (P03372 whole entry): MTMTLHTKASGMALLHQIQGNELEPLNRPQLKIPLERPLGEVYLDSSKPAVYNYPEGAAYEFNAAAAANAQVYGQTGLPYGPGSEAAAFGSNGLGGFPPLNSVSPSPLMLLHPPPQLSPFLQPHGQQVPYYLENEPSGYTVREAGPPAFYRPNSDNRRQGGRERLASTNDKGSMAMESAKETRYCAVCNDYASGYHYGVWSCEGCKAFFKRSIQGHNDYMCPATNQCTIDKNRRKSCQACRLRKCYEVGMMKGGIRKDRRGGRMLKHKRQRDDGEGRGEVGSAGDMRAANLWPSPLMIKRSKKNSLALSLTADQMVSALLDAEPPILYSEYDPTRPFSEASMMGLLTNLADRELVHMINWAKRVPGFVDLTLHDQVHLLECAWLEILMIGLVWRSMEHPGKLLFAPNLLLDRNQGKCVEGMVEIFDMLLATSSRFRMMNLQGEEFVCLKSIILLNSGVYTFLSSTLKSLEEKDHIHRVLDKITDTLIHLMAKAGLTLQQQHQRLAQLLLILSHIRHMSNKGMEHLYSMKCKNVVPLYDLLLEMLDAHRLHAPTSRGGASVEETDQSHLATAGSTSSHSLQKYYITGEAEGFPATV

Aminopeptidase N = target: T2, Aminopeptidase N (Plasmodium falciparum FcB1/Columbia, UniProt O96935); test: malaria alanyl aminopeptidase activity blockers – biochemical, fluorogenic H-Leu-NHMec substrate, 1536-well (AID 1445); parameters: species or system Plasmodium falciparum 3D7, 3D7
T2 sequence (O96935 whole entry): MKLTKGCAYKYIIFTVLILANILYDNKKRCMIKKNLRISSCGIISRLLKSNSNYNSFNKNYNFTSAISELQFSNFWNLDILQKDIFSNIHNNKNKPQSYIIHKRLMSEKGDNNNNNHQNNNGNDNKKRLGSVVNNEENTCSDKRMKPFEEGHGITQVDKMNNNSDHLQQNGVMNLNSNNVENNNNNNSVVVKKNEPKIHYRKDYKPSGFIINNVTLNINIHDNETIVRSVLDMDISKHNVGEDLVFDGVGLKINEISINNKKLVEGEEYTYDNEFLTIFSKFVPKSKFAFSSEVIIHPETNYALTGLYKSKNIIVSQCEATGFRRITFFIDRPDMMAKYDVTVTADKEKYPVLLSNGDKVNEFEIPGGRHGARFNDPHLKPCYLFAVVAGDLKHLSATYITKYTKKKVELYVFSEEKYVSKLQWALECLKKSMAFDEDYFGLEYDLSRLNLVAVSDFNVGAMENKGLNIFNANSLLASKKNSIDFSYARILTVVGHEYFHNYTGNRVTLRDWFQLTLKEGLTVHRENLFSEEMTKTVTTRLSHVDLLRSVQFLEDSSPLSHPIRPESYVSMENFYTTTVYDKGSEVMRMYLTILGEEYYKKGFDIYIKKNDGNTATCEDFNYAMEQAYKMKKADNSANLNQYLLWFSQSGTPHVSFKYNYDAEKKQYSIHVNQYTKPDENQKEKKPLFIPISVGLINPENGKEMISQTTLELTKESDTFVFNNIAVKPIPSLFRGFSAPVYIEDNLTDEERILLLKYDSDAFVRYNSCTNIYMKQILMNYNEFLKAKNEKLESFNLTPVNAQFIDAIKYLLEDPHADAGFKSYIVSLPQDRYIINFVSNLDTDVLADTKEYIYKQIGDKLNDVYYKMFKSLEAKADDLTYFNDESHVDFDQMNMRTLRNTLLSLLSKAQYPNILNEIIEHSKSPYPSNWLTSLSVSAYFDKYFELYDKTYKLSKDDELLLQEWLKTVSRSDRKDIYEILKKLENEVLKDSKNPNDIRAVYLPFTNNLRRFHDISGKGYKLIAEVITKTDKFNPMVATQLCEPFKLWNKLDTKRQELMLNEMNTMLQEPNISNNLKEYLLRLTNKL

Procathepsin L = Procathepsin L (Homo sapiens, UniProt P07711); test: CTSL1 protease inhibition – biochemical, QFRET, 1536-well, counter-screen for M1/M17 aminopeptidase inhibitor project, dose response (AID 2214)
Aspartyl aminopeptidase = Aspartyl aminopeptidase (Plasmodium falciparum 3D7, UniProt Q8I2J3); test: Counterscreen for inhibitors of M1 and M17 aminopeptidases: QFRET-based biochemical high throughput dose response assay for inhibitors of the Plasmodium falciparum M18 Aspartyl Aminopeptidase (PFM18AAP). [Related PubChem assays: 1619 (Screening assay (M17LAP inhibitors).), 1445 (Screening assay (M1AAP inhibitors).)]
Chain of Aspartyl aminopeptidase (Q8I2J3 whole entry): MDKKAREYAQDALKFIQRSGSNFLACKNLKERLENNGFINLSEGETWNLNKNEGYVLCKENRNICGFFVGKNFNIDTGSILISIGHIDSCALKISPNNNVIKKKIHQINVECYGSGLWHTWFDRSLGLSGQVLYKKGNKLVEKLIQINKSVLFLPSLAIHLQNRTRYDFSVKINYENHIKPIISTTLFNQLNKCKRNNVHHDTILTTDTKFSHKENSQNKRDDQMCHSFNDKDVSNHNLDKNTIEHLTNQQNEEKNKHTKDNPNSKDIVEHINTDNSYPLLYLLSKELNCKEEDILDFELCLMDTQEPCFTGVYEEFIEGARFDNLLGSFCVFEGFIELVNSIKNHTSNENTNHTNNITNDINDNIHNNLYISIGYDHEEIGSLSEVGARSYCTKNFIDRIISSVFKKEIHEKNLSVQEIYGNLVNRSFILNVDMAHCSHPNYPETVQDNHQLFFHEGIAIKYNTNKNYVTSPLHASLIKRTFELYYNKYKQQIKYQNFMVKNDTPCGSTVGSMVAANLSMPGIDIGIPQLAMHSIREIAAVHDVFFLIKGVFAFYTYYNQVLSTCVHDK

[4] = target: T3, E3 ubiquitin-protein ligase XIAP (Homo sapiens, UniProt P98170); test: small molecules displacing peptide from XIAP – biochemical, IAP family, fluorescence polarization (AID 1018); assay type: functional
T3 sequence (P98170 whole entry): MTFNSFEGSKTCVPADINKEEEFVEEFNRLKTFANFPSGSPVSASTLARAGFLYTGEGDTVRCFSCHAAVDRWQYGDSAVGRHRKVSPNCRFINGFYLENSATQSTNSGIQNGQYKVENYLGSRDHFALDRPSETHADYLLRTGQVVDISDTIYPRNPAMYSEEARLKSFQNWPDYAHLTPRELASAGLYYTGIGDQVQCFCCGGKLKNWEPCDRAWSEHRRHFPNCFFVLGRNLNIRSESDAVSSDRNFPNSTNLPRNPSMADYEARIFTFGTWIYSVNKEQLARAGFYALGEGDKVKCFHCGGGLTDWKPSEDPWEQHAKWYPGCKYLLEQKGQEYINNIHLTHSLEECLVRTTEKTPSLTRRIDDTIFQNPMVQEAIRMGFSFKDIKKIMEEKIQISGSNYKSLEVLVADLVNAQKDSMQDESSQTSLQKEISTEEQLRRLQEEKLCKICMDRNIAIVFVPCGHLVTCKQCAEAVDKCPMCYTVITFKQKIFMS

[5] = target: T3, E3 ubiquitin-protein ligase XIAP; test: Counter Screen using XIAP-Bir3 for Chemical Antagonists of Bir1/2 domains of IAP-family anti-apoptotic proteins. [Related pubchem assays (depositor defined):AID1018, AID1449, AID1514, AID1638, AID1749, AID1750, AID488957, AID488963]
[6] = A Cell Based Secondary Assay To Explore Cytotoxicity of Compounds that Sensitize Mycobacterium Tuberculosis to Beta-Lactam Antibiotics.; assay type: functional
[7] = target: Eukaryotic translation initiation factor 4E (Mus musculus, UniProt P63073); test: blockers of eIF4G binding by eIF4E – biochemical, TR-FRET, dose response (AID 855); assay type: functional;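 note: potency for disrupting eIF4E binding to eIF4GI seen as loss of FRET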
[8] = target: Protein-tyrosine kinase 2-beta (Homo sapiens, UniProt Q14289);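 note: potency of inhibitors of PYK2 kinase phosphorylation of poly-GT substrate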
Bcl-2-like protein 10 [9] = target: T4, Bcl-2-like protein 10 (Homo sapiens, UniProt Q9HD36); test: Bcl-B/TR3 peptide binding disruption – biochemical, fluorescence polarization, FITC-TR3 peptide, selectivity assay for Bfl-1 inhibitor project, primary screen (AID 748);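 note: fluorescence polarization from a fluorescein-labelled TR3 peptide binding purified Bcl-B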
T4 sequence (Q9HD36 whole entry): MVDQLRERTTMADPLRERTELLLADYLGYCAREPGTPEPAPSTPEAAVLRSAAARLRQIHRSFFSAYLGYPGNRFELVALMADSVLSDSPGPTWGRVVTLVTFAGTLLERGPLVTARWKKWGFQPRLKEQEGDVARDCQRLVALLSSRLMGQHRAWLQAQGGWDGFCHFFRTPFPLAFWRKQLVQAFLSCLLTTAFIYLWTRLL

Bcl-2-like protein 10 [10] = target: T4, Bcl-2-like protein 10; test: Concentration-response of Bcl-B inhibitors by biochemical FP with TR3 (AID 1243); assay type: functional

Chain of Peroxisome proliferator-activated receptor gamma/Nuclear receptor coactivator 2 (P37231 whole entry): as the sequence (P37231 whole entry) above
Chain of Peroxisome proliferator-activated receptor gamma/Nuclear receptor coactivator 2 (Q15596 whole entry, further chain): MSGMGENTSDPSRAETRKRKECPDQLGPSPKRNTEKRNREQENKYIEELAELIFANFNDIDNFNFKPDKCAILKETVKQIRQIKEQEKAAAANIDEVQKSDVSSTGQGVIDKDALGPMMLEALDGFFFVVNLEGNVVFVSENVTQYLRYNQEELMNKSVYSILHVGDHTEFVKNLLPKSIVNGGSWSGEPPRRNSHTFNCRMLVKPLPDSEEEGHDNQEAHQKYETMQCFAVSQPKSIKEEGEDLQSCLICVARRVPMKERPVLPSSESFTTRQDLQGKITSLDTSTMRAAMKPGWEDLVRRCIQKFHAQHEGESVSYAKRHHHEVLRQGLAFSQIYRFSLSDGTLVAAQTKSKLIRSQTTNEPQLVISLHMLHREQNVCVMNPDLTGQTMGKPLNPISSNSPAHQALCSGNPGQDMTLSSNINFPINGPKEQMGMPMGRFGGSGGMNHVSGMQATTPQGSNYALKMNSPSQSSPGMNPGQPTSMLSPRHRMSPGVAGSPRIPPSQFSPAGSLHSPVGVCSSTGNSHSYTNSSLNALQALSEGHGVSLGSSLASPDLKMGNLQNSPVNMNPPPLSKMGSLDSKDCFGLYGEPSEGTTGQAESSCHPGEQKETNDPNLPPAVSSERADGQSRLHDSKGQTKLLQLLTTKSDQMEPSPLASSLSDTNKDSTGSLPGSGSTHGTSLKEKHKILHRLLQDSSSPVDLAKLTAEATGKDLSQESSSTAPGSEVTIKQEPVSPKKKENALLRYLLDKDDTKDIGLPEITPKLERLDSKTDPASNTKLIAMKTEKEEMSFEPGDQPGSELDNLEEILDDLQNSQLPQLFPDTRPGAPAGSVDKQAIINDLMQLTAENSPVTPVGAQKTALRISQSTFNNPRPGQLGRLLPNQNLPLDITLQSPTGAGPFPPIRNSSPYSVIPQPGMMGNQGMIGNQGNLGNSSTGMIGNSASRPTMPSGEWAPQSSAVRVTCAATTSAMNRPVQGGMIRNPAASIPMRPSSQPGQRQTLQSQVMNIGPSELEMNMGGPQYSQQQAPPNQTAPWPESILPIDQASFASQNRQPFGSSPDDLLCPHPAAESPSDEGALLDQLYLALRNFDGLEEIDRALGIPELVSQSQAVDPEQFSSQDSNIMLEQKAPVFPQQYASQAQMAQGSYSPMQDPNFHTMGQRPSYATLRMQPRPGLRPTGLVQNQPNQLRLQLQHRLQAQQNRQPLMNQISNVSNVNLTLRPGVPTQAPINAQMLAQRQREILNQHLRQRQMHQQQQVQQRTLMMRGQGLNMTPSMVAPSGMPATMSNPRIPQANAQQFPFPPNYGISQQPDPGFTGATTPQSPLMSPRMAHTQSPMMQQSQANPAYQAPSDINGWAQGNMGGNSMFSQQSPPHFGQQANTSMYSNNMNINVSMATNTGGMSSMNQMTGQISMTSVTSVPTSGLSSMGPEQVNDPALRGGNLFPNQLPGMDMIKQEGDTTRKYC

With O=C(COC(=O)c1sc2ccccc2c1Cl)Nc1ncc(Cl)cc1Cl the EC50 [1] was 18.8 µM (not active), the EC50 [2] was 25.5 µM (not active) and the EC50 [3] was 21.6 µM (not active).

In the case of NC(=O)c1oc2ccccc2c1NC(=O)c1nc2ccccc2s1, the EC50 (Estrogen receptor) is reported as 13.4 µM (active).

In the case of O=C(O)CCC(=O)N1N=C(c2c(O)nc3ccc(Cl)cc3c2-c2ccccc2)CC1c1cccs1 (stereo unspecified), the IC50 (Aminopeptidase N) is reported as 5.76 µM (active), the IC50 (Procathepsin L) is reported as > 59.6 µM (not active) and the IC50 (Aspartyl aminopeptidase) is reported as > 73.5 µM (not active).

With CCCN1Cc2cccc(C(=O)Nc3ccc4c(c3)OCO4)c2C1=O the IC50 [4] was > 100 µM (not active) and the IC50 [5] was > 100 µM (inactive).

With CC(=O)N1CCCc2cc(S(=O)(=O)N(CC(C)C)CC(C)C)ccc21 the IC50 [4] was > 100 µM (not active) and the IC50 [5] was > 100 µM (inactive).

With CCOC(=O)c1c(C)[nH]c(C)c1C(=O)COC(=O)c1ccc(S(=O)(=O)N(CC)CC)cc1 the CC50 [6] was > 40 µM (active).

In the case of Cc1cc(N)ccc1N1CCCC1, the IC50 [7] is reported as 33.1 µM (inactive), the IC50 [8] is reported as 1.82 µM (active) and the IC50 (Bcl-2-like protein 10 [9]) is reported as 0.963 µM (active).

For Cn1c(=O)cc2c3c(c(Nc4ccc(C=O)cc4)ccc31)C(=O)c1ccccc1-2, the EC50 (Bcl-2-like protein 10 [10]) was 8.04 µM (active).
